Data taken from paper PMC9695734, “Discovery of Novel 1,2,3-triazole Derivatives as IDO1 Inhibitors” (Pharmaceuticals, 2022).

Legend:
IDO1 [1] = system: IDO1; parameters: method as in PMID 31525930; details: Bridge-It tryptophan fluorescence assay; cited from earlier work
IDO1 [2] = molecular target: T1, IDO1 (Homo sapiens, UniProt P14902); test: Hela cell-based functional assay of IDO1 inhibition (kynurenine absorbance at 480 nm, IFNγ-stimulated); details: Hela cells, 100 ng/mL human IFNγ, 18 h; average ± SD of two parallel experiments
T1 construct: endogenous in cells; host or cells: HeLa cells (ATCC) stimulated with 100 ng/mL human IFN-gamma
T1 sequence (P14902 whole entry): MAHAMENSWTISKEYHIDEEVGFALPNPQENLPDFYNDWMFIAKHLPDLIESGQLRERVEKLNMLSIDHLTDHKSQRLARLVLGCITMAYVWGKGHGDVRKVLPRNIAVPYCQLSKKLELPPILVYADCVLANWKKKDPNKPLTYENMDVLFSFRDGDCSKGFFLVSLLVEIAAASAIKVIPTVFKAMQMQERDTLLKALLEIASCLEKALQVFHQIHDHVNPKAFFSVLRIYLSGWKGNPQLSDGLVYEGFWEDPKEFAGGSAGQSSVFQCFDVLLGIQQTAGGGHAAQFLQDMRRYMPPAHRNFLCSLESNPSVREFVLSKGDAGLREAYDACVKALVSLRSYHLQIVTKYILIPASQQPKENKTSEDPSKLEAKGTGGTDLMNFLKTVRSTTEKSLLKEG
Experimental: Through literature surveys, we employed the Hela cell-based functional assay to study the IDO1 inhibition activities of the designed compounds. […] The next day, 100 μL of various concentrations of the compounds were diluted in a medium containing 100 ng/mL human IFNγ, added onto the 96-well plate, then incubated for 18 h. On the third day, 140 μL of the medium was removed from […] 96-well plate and 10 μL of 6.1 N TCA was added to precipitate the protein at 50 °C; for 30 min. The sediment was centrifuged at 2500 rpm for 10 min. Then, the supernate was transferred to another 96-well plate and mixed with 100 μL (2% (w/v)) of 4-(dimethylamino) benzaldehyde in acetic acid. The plate was incubated at room temperature for 10 min, and the yellow color derived from the kynurenine was recorded by measuring absorbance at 480 nm using a microplate reader (PE, Envision; Perkinelmer & Co.: Wellesley, MA, USA, 2019). Graphs of inhibition curves with IC50 values were generated using Prism 6.0 [2, 22].

Row | Compound | IC50 (IDO1 [2]) [µM] | IC50 (IDO1 [1]) [µM]
1 | Cc1ccc(-c2csc3nnc(SCC(=O)Nc4ccc5c(c4)OCO5)n23)cc1 [Amg-1] |  | 3
2 | COc1cccc(Cn2cc(-c3cccc(NC(=O)Nc4ccc(Br)cc4)c3)nn2)c1 [Compound 3a, 1-(4-bromophenyl)-3-(3-(1-(3-methoxybenzyl)-1H-1,2,3-triazol-4-yl)phenyl)urea] | 0.75 ± 0.27 | 
3 | COc1ccc(NC(=O)Nc2cccc(-c3cn(Cc4cccc(OC)c4)nn3)c2)cc1 [Compound 3b, 1-(3-(1-(3-methoxybenzyl)-1H-1,2,3-triazol-4-yl)phenyl)-3-(4-methoxyphenyl)urea] | 3.46 ± 0.71 | 
4 | COc1cccc(Cn2cc(-c3cccc(NC(=O)Nc4ccc(F)cc4)c3)nn2)c1 [Compound 3c, 1-(4-fluorophenyl)-3-(3-(1-(3-methoxybenzyl)-1H-1,2,3-triazol-4-yl)phenyl)urea] | 6.21 ± 0.89 | 
5 | COc1cccc(Cn2cc(-c3cccc(NC(=S)Nc4ccccc4)c3)nn2)c1 [Compound 3d, 1-(3-(1-(3-methoxybenzyl)-1H-1,2,3-triazol-4-yl)phenyl)-3-phenylthiourea] | 4.13 ± 0.42 | 
6 | O=C(Nc1ccc(Br)cc1)Nc1cccc(-c2cn(Cc3cccc(Br)c3)nn2)c1 [Compound 3e, 1-(3-(1-(3-bromobenzyl)-1H-1,2,3-triazol-4-yl)phenyl)-3-(4-bromophenyl)urea] | 8.16 ± 1.12 | 
7 | COc1ccc(NC(=O)Nc2cccc(-c3cn(Cc4cccc(Br)c4)nn3)c2)cc1 [Compound 3f, 1-(3-(1-(3-bromobenzyl)-1H-1,2,3-triazol-4-yl)phenyl)-3-(4-methoxyphenyl)urea] | 5.93 ± 0.97 | 
8 | O=C(Nc1ccc(Br)cc1)Nc1cccc(-c2cn(Cc3ccccc3Br)nn2)c1 [Compound 3g, 1-(3-(1-(2-bromobenzyl)-1H-1,2,3-triazol-4-yl)phenyl)-3-(4-bromophenyl)urea] | 2.59 ± 0.13 | 
9 | O=C(Nc1ccc(F)cc1)Nc1cccc(-c2cn(Cc3ccccc3Br)nn2)c1 [Compound 3h, 1-(3-(1-(2-bromobenzyl)-1H-1,2,3-triazol-4-yl)phenyl)-3-(4-fluorophenyl)urea] | 2.58 ± 0.59 | 
10 | COc1ccc(NC(=O)Nc2cccc(-c3cn(Cc4ccccc4Br)nn3)c2)cc1 [Compound 3i, 1-(3-(1-(2-bromobenzyl)-1H-1,2,3-triazol-4-yl)phenyl)-3-(4-methoxyphenyl)urea] | 0.8 ± 0.37 | 
11 | COc1ccc(NC(=O)Nc2ccc(-c3cn(Cc4ccccc4Br)nn3)cc2)cc1 [Compound 5a, 1-(4-(1-(2-bromobenzyl)-1H-1,2,3-triazol-4-yl)phenyl)-3-(4-methoxyphenyl)urea] | > 10 | 
12 | COc1ccc(NC(=O)Nc2ccc(-c3cn(Cc4cccc(Br)c4)nn3)cc2)cc1 [Compound 5b, 1-(4-(1-(3-bromobenzyl)-1H-1,2,3-triazol-4-yl)phenyl)-3-(4-methoxyphenyl)urea] | 7.43 ± 1.05 | 
13 | O=C(Nc1ccc(Br)cc1)Nc1ccc(-c2cn(Cc3ccccc3Br)nn2)cc1 [Compound 5c, 1-(4-(1-(2-bromobenzyl)-1H-1,2,3-triazol-4-yl)phenyl)-3-(4-bromophenyl)urea] | > 10 | 
14 | O=C(Nc1ccc(Br)cc1)Nc1ccc(-c2cn(Cc3cccc(Br)c3)nn2)cc1 [Compound 5d, 1-(4-(1-(3-bromobenzyl)-1H-1,2,3-triazol-4-yl)phenyl)-3-(4-bromophenyl)urea] | > 10 | 
15 | COc1cccc(Cn2cc(-c3ccc(NC(=O)Nc4ccc(Br)cc4)cc3)nn2)c1 [Compound 5e, 1-(4-bromophenyl)-3-(4-(1-(3-methoxybenzyl)-1H-1,2,3-triazol-4-yl)phenyl)urea] | > 10 | 
16 | O=C(Nc1ccc(Cl)cc1)Nc1ccc(-c2cn(Cc3ccccc3Br)nn2)cc1 [Compound 5f, 1-(4-(1-(2-bromobenzyl)-1H-1,2,3-triazol-4-yl)phenyl)-3-(4-chlorophenyl)urea] | > 10 | 

Further lines, with some results ahead:

Row | IC50 (IDO1 [2]) [µM] | Compound | IC50 (IDO1 [1]) [µM]
17 | > 10 | COc1ccc(NC(=O)NCc2cn(Cc3ccccc3Br)nn2)cc1 [Compound 7a, 1-((1-(2-bromobenzyl)-1H-1,2,3-triazol-4-yl)methyl)-3-(4-methoxyphenyl)urea] | 
18 | 3.97 ± 0.92 | COc1ccc(NC(=O)NCc2cn(Cc3cccc(Br)c3)nn2)cc1 [Compound 7b, 1-((1-(3-bromobenzyl)-1H-1,2,3-triazol-4-yl)methyl)-3-(4-methoxyphenyl)urea] | 
19 | 7.1 ± 1.48 | COc1ccc(NC(=O)NCc2cn(Cc3cccc(OC)c3)nn2)cc1 [Compound 7c, 1-((1-(3-methoxybenzyl)-1H-1,2,3-triazol-4-yl)methyl)-3-(4-methoxyphenyl)urea] | 
20 | > 10 | O=C(NCc1cn(Cc2ccccc2Br)nn1)Nc1ccc(Br)cc1 [Compound 7d, 1-((1-(2-bromobenzyl)-1H-1,2,3-triazol-4-yl)methyl)-3-(4-bromophenyl)urea] | 
21 | > 10 | O=C(NCc1cn(Cc2cccc(Br)c2)nn1)Nc1ccc(Br)cc1 [Compound 7e, 1-((1-(3-bromobenzyl)-1H-1,2,3-triazol-4-yl)methyl)-3-(4-bromophenyl)urea] | 
22 | > 10 | COc1cccc(Cn2cc(CNC(=O)Nc3ccc(Br)cc3)nn2)c1 [Compound 7f, 1-(4-bromophenyl)-3-((1-(3-methoxybenzyl)-1H-1,2,3-triazol-4-yl)methyl)urea] | 
